From ChEMBL document CHEMBL1132056, “First hydroxamate inhibitors for carboxypeptidase A. N-acyl-N-hydroxy-beta-phenylalanines” (Bioorg Med Chem Lett, 1999) come the findings set out here.

The term Ki denotes a measure of affinity in units of concentration, obtained from inhibition or displacement. A lower Ki goes with a stronger hold on the target.

Structures are written as SMILES.

The target of the assay is T1, Carboxypeptidase A1 (Homo sapiens, UniProt P15085).
T1 sequence (P15085 whole entry): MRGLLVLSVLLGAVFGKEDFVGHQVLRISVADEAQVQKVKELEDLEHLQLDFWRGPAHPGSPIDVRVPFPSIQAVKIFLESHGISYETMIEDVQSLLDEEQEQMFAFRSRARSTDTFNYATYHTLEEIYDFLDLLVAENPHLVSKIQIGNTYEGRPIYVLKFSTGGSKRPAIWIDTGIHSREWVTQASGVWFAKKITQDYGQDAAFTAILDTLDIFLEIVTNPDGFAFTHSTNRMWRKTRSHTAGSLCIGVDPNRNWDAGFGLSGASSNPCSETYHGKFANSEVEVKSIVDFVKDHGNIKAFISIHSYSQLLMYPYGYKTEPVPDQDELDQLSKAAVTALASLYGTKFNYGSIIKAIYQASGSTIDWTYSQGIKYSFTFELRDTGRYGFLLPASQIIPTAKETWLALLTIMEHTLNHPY
Nature of the assay: Compound was tested for its inhibitory activity against carboxypeptidase A (CPA).
`O=C(O)C(Cc1ccccc1)CN(O)C(=O)c1ccccc1` (centres undefined) displayed a Ki of 6500 nM. `O=C(O)C(Cc1ccccc1)CN(O)C(=O)CCCc1ccccc1` (centres undefined) returned an inhibition constant (Ki) of 1160 nM. `O=C(O)C(Cc1ccccc1)CN(O)C(=O)Cc1ccccc1` (centres undefined) showed a Ki of 320 nM. `O=CN(O)CC(Cc1ccccc1)C(=O)O` (centres undefined) registered an inhibition constant Ki of 980 nM. In turn, `O=CN(O)C[C@@H](Cc1ccccc1)C(=O)O` registered an inhibition constant Ki of 560 nM. With `CC(=O)N(O)CC(Cc1ccccc1)C(=O)O` (centres undefined), the inhibitory constant (Ki) amounted to 5900 nM. Regarding `O=C(O)C(Cc1ccccc1)CN(O)C(=O)CCc1ccccc1` (centres undefined), the affinity corresponds to a Ki of 1200 nM. Against the preceding compound, the Ki is about 4.9-fold lower. Consider `O=CN(O)C[C@H](Cc1ccccc1)C(=O)O`, for which the affinity corresponds to a Ki of 4950 nM. This Ki lies about 4.1-fold higher than the previous one. `CCC(=O)N(O)CC(Cc1ccccc1)C(=O)O` (centres undefined) registered an inhibition constant Ki of 5820 nM.
